Data on two molecules can be found in US8609381B2, “Methods to control bacterial growth in fermentation processes” (Dow Brasil Sudeste Industrial Ltda., priority 2007, dated 2013).

The test system of one test is yeast. The test can be described thus: Effect of biocide on yeast level (SDA medium plate count). As to conditions: biocide concentration 50 ppm, 2 hours after contact. Format: cell-based. From the text:
(§1) SDA medium is synthetic defined agar, and PCA medium is plate count agar. Dow Antimicrobial™ 7287 is a composition containing 20 percent 2,2-dibromo-3-nitrilopropionamide (DBNPA), sold by The Dow Chemical Company.

Another test relates to bacteria. The test can be described thus: Effect of biocide on bacteria level (PCA medium plate count). Format: cell-based. As to conditions: biocide concentration 50 ppm, 2 hours after contact.
Excerpt: as §1

With `O=CCCCC=O` [UCARCIDE ™ 250, glutaraldehyde], in the test with yeast, the Yeast level is listed as 5.0 × 10^4 cfu/ml. Besides, in the test on bacteria, the Bacteria level is 5.0 × 10^5 cfu/ml.
For Diethyl Carbamate, in that order: <1.0 × 10^4 cfu/ml and 2.6 × 10^7 cfu/ml.
